Numbers after ± are expanded uncertainties.
How the values were obtained:
[1] = xn = mol fraction of the nth substance listed; conditions: 87 kPa, Liquid, Vibrating tube method
[2] = 87 kPa, Liquid, Vibrating tube method

OC(CCl)CCl [1,3-dichloro-2-propanol] + CCOC(C)=O
mass density [kg/m3], [1]
Conditions | 293.15 K | 298.15 K | 303.15 K | 308.15 K | 313.15 K
x1 = 0.0442 | 921.07 ± 2.9 | 915.01 ± 2.9 | 909.02 ± 3 | 902.88 ± 3 | 896.68 ± 3
x1 = 0.0967 | 945.13 ± 2.9 | 939.12 ± 2.9 | 933.16 ± 2.9 | 927.05 ± 2.9 | 921.2 ± 3
x1 = 0.1971 | 991 ± 2.9 | 985 ± 2.9 | 979.1 ± 2.9 | 972.97 ± 2.9 | 967.2 ± 2.9
x1 = 0.3019 | 1039.05 ± 2.9 | 1033.15 ± 3 | 1027.3 ± 3 | 1021.22 ± 3 | 1015.41 ± 3
x1 = 0.3939 | 1081.4 ± 3 | 1075.55 ± 3 | 1069.64 ± 3 | 1063.7 ± 3 | 1057.83 ± 3
x1 = 0.4995 | 1130.18 ± 3 | 1124.35 ± 3 | 1118.48 ± 3 | 1112.58 ± 3 | 1106.65 ± 3
x1 = 0.6006 | 1176.92 ± 3 | 1171.1 ± 3 | 1165.25 ± 3 | 1159.37 ± 3 | 1153.45 ± 3
x1 = 0.6993 | 1222.62 ± 3 | 1216.83 ± 3 | 1210.95 ± 3 | 1205.06 ± 3 | 1199.14 ± 3
x1 = 0.8006 | 1269.78 ± 3 | 1263.96 ± 3 | 1258.07 ± 3 | 1252.15 ± 3 | 1246.2 ± 3
x1 = 0.9011 | 1316.79 ± 3 | 1310.89 ± 3 | 1304.97 ± 3 | 1299 ± 3 | 1293.1 ± 3
x1 = 0.953 | 1340.9 ± 3 | 1334.99 ± 3 | 1329.01 ± 3 | 1323.02 ± 3 | 1316.98 ± 3
x1 = 1 | 1362.66 ± 1.1 | 1356.74 ± 1.1 | 1350.72 ± 1.1 | 1344.71 ± 1.1 | 1338.65 ± 1.1

OCc1ccccc1 [benzenemethanol]
[2]
Conditions | mass density [kg/m3]
293.15 K | 1045.21 ± 1
298.15 K | 1041.38 ± 1
303.15 K | 1037.5 ± 1
308.15 K | 1033.63 ± 1
313.15 K | 1029.71 ± 1

OCc1ccccc1 [benzenemethanol] + C=COC(C)=O
[1], x1 = 1
Conditions | mass density [kg/m3]
293.15 K | 1045.21 ± 1
298.15 K | 1041.38 ± 1
303.15 K | 1037.5 ± 1
308.15 K | 1033.63 ± 1
313.15 K | 1029.71 ± 1

OCc1ccccc1 [benzenemethanol] + CC(=O)OC(C)(C)C
[1], x1 = 1
Conditions | mass density [kg/m3]
293.15 K | 1045.21 ± 1
298.15 K | 1041.38 ± 1
303.15 K | 1037.5 ± 1
308.15 K | 1033.63 ± 1
313.15 K | 1029.71 ± 1

OCc1ccccc1 [benzenemethanol] + CCOC(C)=O
mass density [kg/m3], [1]
Conditions | 293.15 K | 298.15 K | 303.15 K | 308.15 K | 313.15 K
x1 = 0.0452 | 909.04 ± 1.5 | 903.11 ± 1.5 | 897.12 ± 1.5 | 891.1 ± 1.5 | 885.03 ± 1.6
x1 = 0.1047 | 919.57 ± 1.5 | 913.81 ± 1.5 | 908.02 ± 1.5 | 902.18 ± 1.5 | 896.3 ± 1.5
x1 = 0.2008 | 935.91 ± 1.4 | 930.43 ± 1.4 | 924.91 ± 1.4 | 919.36 ± 1.5 | 913.77 ± 1.5
x1 = 0.3043 | 952.73 ± 1.4 | 947.53 ± 1.4 | 942.29 ± 1.4 | 937.02 ± 1.4 | 931.72 ± 1.4
x1 = 0.4 | 967.5 ± 1.4 | 962.53 ± 1.4 | 957.53 ± 1.4 | 952.49 ± 1.4 | 947.43 ± 1.4
x1 = 0.5017 | 982.41 ± 1.3 | 977.66 ± 1.4 | 972.89 ± 1.4 | 968.08 ± 1.4 | 963.26 ± 1.4
x1 = 0.6006 | 996.27 ± 1.3 | 991.73 ± 1.3 | 987.15 ± 1.3 | 982.56 ± 1.3 | 977.95 ± 1.3
x1 = 0.7013 | 1009.5 ± 1.3 | 1005.14 ± 1.3 | 1000.77 ± 1.3 | 996.37 ± 1.3 | 991.97 ± 1.3
x1 = 0.8074 | 1023 ± 1.3 | 1018.86 ± 1.3 | 1014.67 ± 1.3 | 1010.47 ± 1.3 | 1006.26 ± 1.3
x1 = 0.9042 | 1034.66 ± 1.2 | 1030.64 ± 1.2 | 1026.67 ± 1.3 | 1022.63 ± 1.3 | 1018.59 ± 1.3
x1 = 0.9537 | 1040.08 ± 1.2 | 1036.17 ± 1.2 | 1032.23 ± 1.2 | 1028.28 ± 1.2 | 1024.32 ± 1.2
x1 = 1 | 1045.21 ± 1 | 1041.38 ± 1 | 1037.5 ± 1 | 1033.63 ± 1 | 1029.71 ± 1

CCOC(C)=O [ethyl acetate] + OC(CCl)CCl
[1], x2 = 0
Conditions | mass density [kg/m3]
293.15 K | 900.71 ± 1
298.15 K | 894.65 ± 1
303.15 K | 888.52 ± 1
308.15 K | 882.35 ± 1
313.15 K | 876.12 ± 1

CCOC(C)=O [ethyl acetate] + OCc1ccccc1
[1], x2 = 0
Conditions | mass density [kg/m3]
293.15 K | 900.71 ± 1
298.15 K | 894.65 ± 1
303.15 K | 888.52 ± 1
308.15 K | 882.35 ± 1
313.15 K | 876.12 ± 1

C=COC(C)=O [vinyl acetate] + OC(CCl)CCl
[1], x2 = 0
Conditions | mass density [kg/m3]
293.15 K | 932.41 ± 1
298.15 K | 926.01 ± 1
303.15 K | 919.56 ± 1
308.15 K | 913.07 ± 1
313.15 K | 906.52 ± 1

C=COC(C)=O [vinyl acetate] + OCc1ccccc1
mass density [kg/m3], [1]
Conditions | 293.15 K | 298.15 K | 303.15 K | 308.15 K | 313.15 K
x2 = 0 | 932.41 ± 1 | 926.01 ± 1 | 919.56 ± 1 | 913.07 ± 1 | 906.52 ± 1
x2 = 0.0504 | 940.17 ± 1.4 | 934.2 ± 1.4 | 928.1 ± 1.4 | 922 ± 1.5 | 915.06 ± 1.4
x2 = 0.0954 | 947.04 ± 1.3 | 941.4 ± 1.3 | 935.7 ± 1.3 | 930 ± 1.4 | 922.62 ± 1.4
x2 = 0.1987 | 961.08 ± 1.3 | 955.4 ± 1.3 | 949.66 ± 1.3 | 943.89 ± 1.3 | 938.08 ± 1.4
x2 = 0.2999 | 974.18 ± 1.3 | 968.88 ± 1.3 | 963.51 ± 1.3 | 958.06 ± 1.3 | 952.57 ± 1.3
x2 = 0.3947 | 985.63 ± 1.2 | 980.52 ± 1.2 | 975.38 ± 1.3 | 970.21 ± 1.3 | 965 ± 1.3
x2 = 0.5005 | 997.61 ± 1.2 | 992.77 ± 1.2 | 987.91 ± 1.2 | 983.01 ± 1.2 | 978.09 ± 1.3
x2 = 0.5991 | 1008.19 ± 1.2 | 1003.62 ± 1.2 | 998.97 ± 1.2 | 994.32 ± 1.2 | 989.64 ± 1.2
x2 = 0.7047 | 1019.12 ± 1.2 | 1014.77 ± 1.2 | 1010.36 ± 1.2 | 1005.95 ± 1.2 | 1001.51 ± 1.2
x2 = 0.8037 | 1028.4 ± 1.2 | 1024.23 ± 1.2 | 1020.02 ± 1.2 | 1015.85 ± 1.2 | 1011.55 ± 1.2
x2 = 0.9067 | 1037.37 ± 1.1 | 1033.39 ± 1.2 | 1029.37 ± 1.2 | 1025.33 ± 1.2 | 1021.27 ± 1.2

Source: the NIST ThermoML archive (doi:10.1016/j.tca.2016.04.001)
